In ChEMBL document CHEMBL1201862, “PubChem BioAssay data set” (2004):
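Five compound concentrations were applied to cells in 96-well plates for 48 hours; endpoints were derived by simple linear interpolation of the resulting dose-response curve. The concentration for 50% growth inhibition is given as GI50.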 Calls of active or inactive are those of the source. Cut-off read from the data, not from the text of the source: active = GI50 up to about 1.1 µM and inactive = higher.

How the values were obtained:
Assay in all cases: inhibition of tumour cell growth, NCI panel, 48 h
NCI-H522 = system: NCI-H522
NCI-H226 = system: NCI-H226
UACC-257 = system: UACC-257
OVCAR-8 = system: OVCAR-8
IGROV-1 = system: IGROV-1
786-0 = system: 786-0
Hs-578T = system: Hs-578T
EKVX = system: EKVX
HCC 2998 = system: HCC 2998
OVCAR-4 = system: OVCAR-4
BT-549 = system: BT-549
SNB-75 = system: SNB-75
SK-OV-3 = system: SK-OV-3
RPMI-8226 = system: RPMI-8226
TK-10 = system: TK-10
MOLT-4 = system: MOLT-4
HCT-116 = system: HCT-116
OVCAR-5 = system: OVCAR-5
RXF 393 = system: RXF 393
K562 = system: K562

Measured: GI50

COC(=O)c1ccccc1/C=C1\Cc2cc3c(cc2C1=O)CCC3
inactive: NCI-H522 68.9 µM | NCI-H226 > 100 µM | UACC-257 > 100 µM | OVCAR-8 > 100 µM | IGROV-1 > 100 µM | 786-0 38.4 µM | Hs-578T > 10 µM | EKVX > 100 µM | HCC 2998 > 100 µM | OVCAR-4 > 100 µM | BT-549 > 100 µM | SNB-75 34.9 µM | SK-OV-3 > 100 µM | RPMI-8226 > 100 µM | TK-10 59.8 µM | MOLT-4 > 100 µM | HCT-116 45 µM | OVCAR-5 > 100 µM

COc1ccccc1NC(=S)Nc1cc(C)cc(C)n1
inactive: NCI-H226 > 100 µM | UACC-257 > 100 µM | RXF 393 > 100 µM | OVCAR-8 > 100 µM | IGROV-1 > 100 µM | 786-0 > 100 µM | EKVX > 100 µM | HCC 2998 > 100 µM | OVCAR-4 > 100 µM | BT-549 > 100 µM | SNB-75 > 49.4 µM | SK-OV-3 > 100 µM | RPMI-8226 > 100 µM | TK-10 > 100 µM | MOLT-4 > 100 µM | K562 > 100 µM | HCT-116 > 100 µM | OVCAR-5 > 100 µM

CCCCCCCCCCCCCCCCCCNc1nc(=O)n(C2CC(OP(=O)(O)OCC3OC(n4cc(F)c(=O)[nH]c4=O)CC3O)C(CO)O2)cc1F (configuration not stated)
inactive: NCI-H522 30.3 µM | NCI-H226 98.4 µM | UACC-257 61 µM | RXF 393 11.4 µM | OVCAR-8 17.5 µM | IGROV-1 46.3 µM | 786-0 49.4 µM | Hs-578T 35.2 µM | EKVX > 100 µM | HCC 2998 5.97 µM | OVCAR-4 > 100 µM | SNB-75 36.9 µM | SK-OV-3 31.7 µM | RPMI-8226 11.2 µM | TK-10 70.5 µM | MOLT-4 14.7 µM | K562 26.9 µM | HCT-116 47.1 µM | OVCAR-5 54.2 µM

O=[N+]([O-])c1ccc(CSc2nn(Cc3ccc([N+](=O)[O-])cc3)cc3ncnc2-3)cc1
inactive: NCI-H522 22.3 µM | NCI-H226 38.4 µM | UACC-257 29 µM | OVCAR-8 33.2 µM | IGROV-1 20.4 µM | 786-0 47.5 µM | EKVX 69.3 µM | HCC 2998 35.6 µM | OVCAR-4 52.5 µM | BT-549 21 µM | SNB-75 34.1 µM | SK-OV-3 > 100 µM | RPMI-8226 14.8 µM | TK-10 29 µM | MOLT-4 23.5 µM | K562 31.8 µM | HCT-116 37.1 µM | OVCAR-5 > 100 µM

N#CCCN(C(=O)Nc1ccccc1)[C@H]1CCCC[C@@H]1N(C(=O)Nc1ccccc1)c1ccccc1
inactive: NCI-H522 71.1 µM | NCI-H226 77.8 µM | UACC-257 > 100 µM | RXF 393 35.6 µM | OVCAR-8 > 100 µM | IGROV-1 61 µM | 786-0 > 100 µM | EKVX 65.5 µM | HCC 2998 73.3 µM | OVCAR-4 64.6 µM | BT-549 > 100 µM | SNB-75 16.7 µM | SK-OV-3 > 100 µM | RPMI-8226 36.7 µM | TK-10 > 100 µM | MOLT-4 25.1 µM | K562 49.1 µM | HCT-116 66.7 µM | OVCAR-5 > 100 µM

CCn1cnc2c(NC(C)=O)ncnc21
inactive: NCI-H522 > 100 µM | NCI-H226 > 100 µM | UACC-257 > 100 µM | RXF 393 > 100 µM | OVCAR-8 > 100 µM | IGROV-1 > 100 µM | 786-0 > 100 µM | EKVX > 100 µM | HCC 2998 > 100 µM | OVCAR-4 > 100 µM | BT-549 > 100 µM | SNB-75 1.33 µM | SK-OV-3 > 100 µM | RPMI-8226 > 100 µM | TK-10 > 100 µM | MOLT-4 > 100 µM | K562 > 100 µM | HCT-116 > 100 µM | OVCAR-5 > 100 µM

CC(C)(C)c1cc(-c2cc(C(C)(C)C)n(-c3ccccc3)n2)nn1-c1ccccc1
inactive: NCI-H522 > 100 µM | NCI-H226 > 100 µM | UACC-257 > 100 µM | RXF 393 > 100 µM | OVCAR-8 > 100 µM | IGROV-1 > 100 µM | 786-0 > 100 µM | EKVX > 100 µM | HCC 2998 31.3 µM | OVCAR-4 > 100 µM | BT-549 > 100 µM | SNB-75 > 100 µM | SK-OV-3 > 100 µM | RPMI-8226 > 100 µM | TK-10 > 100 µM | MOLT-4 > 100 µM | K562 3.27 µM | HCT-116 > 100 µM | OVCAR-5 > 100 µM

Nn1c(S)nnc1-c1ccccc1Nc1ccccc1-c1nnc(S)n1N
inactive: NCI-H522 > 50 µM | NCI-H226 > 50 µM | UACC-257 > 50 µM | RXF 393 > 50 µM | OVCAR-8 > 50 µM | IGROV-1 > 50 µM | 786-0 > 50 µM | EKVX > 50 µM | HCC 2998 > 50 µM | OVCAR-4 > 50 µM | BT-549 > 50 µM | SNB-75 > 50 µM | RPMI-8226 41.8 µM | TK-10 > 50 µM | MOLT-4 > 50 µM | K562 > 50 µM | HCT-116 > 50 µM | OVCAR-5 > 50 µM

O=C1c2c(O)cc(O)cc2C(C2OC(CO)C(O)C(O)C2O)c2cc(CO)cc(O)c21 (configuration not stated)
inactive: NCI-H226 > 100 µM | UACC-257 > 100 µM | OVCAR-8 > 100 µM | IGROV-1 > 100 µM | 786-0 > 100 µM | EKVX > 100 µM | HCC 2998 > 100 µM | OVCAR-4 > 100 µM | BT-549 > 100 µM | SNB-75 22.5 µM | SK-OV-3 > 100 µM | RPMI-8226 > 100 µM | TK-10 > 100 µM | MOLT-4 > 100 µM | K562 > 100 µM | HCT-116 > 100 µM | OVCAR-5 > 100 µM

Cc1n[nH]/c(=N\S(=O)(=O)c2ccc(/N=N/c3c(O)c(C(=O)O)cc4ccccc34)cc2)s1
inactive: NCI-H522 > 100 µM | NCI-H226 > 100 µM | UACC-257 > 100 µM | RXF 393 > 100 µM | OVCAR-8 > 100 µM | IGROV-1 > 100 µM | 786-0 > 100 µM | Hs-578T > 100 µM | EKVX > 100 µM | HCC 2998 > 100 µM | OVCAR-4 > 100 µM | SNB-75 > 100 µM | SK-OV-3 > 100 µM | RPMI-8226 > 100 µM | TK-10 > 100 µM | MOLT-4 > 100 µM | K562 > 100 µM | HCT-116 > 100 µM | OVCAR-5 > 100 µM

CC1(C)OC(=O)C(C)(C)C(=O)O1
inactive: NCI-H522 > 100 µM | NCI-H226 > 100 µM | UACC-257 > 100 µM | OVCAR-8 > 100 µM | IGROV-1 > 100 µM | 786-0 > 100 µM | Hs-578T > 100 µM | EKVX > 100 µM | HCC 2998 > 100 µM | OVCAR-4 > 100 µM | BT-549 > 100 µM | SNB-75 > 100 µM | SK-OV-3 > 100 µM | TK-10 > 100 µM | MOLT-4 > 100 µM | K562 > 100 µM | HCT-116 > 100 µM | OVCAR-5 > 100 µM

CCCCCCc1cc(C=O)sc1-c1ccc(-c2sc(-c3ccc(-c4ccc(-c5cc(CCCCCC)c(-c6ccc(-c7sc(C=O)cc7CCCCCC)s6)s5)s4)s3)cc2CCCCCC)s1
inactive: NCI-H522 91.4 µM | NCI-H226 28.4 µM | UACC-257 > 100 µM | RXF 393 > 100 µM | OVCAR-8 > 100 µM | IGROV-1 > 100 µM | 786-0 > 100 µM | EKVX > 100 µM | HCC 2998 > 100 µM | OVCAR-4 > 100 µM | BT-549 > 100 µM | SK-OV-3 > 100 µM | RPMI-8226 > 100 µM | TK-10 > 100 µM | MOLT-4 > 100 µM | K562 > 100 µM | HCT-116 > 100 µM | OVCAR-5 > 100 µM

Cn1c2ccccc2c2c3c(c4c5ccccc5n(C)c4c21)C(=O)N(c1ccccc1)C3=O
inactive: NCI-H522 44.4 µM | NCI-H226 > 100 µM | UACC-257 > 100 µM | OVCAR-8 > 100 µM | IGROV-1 98.6 µM | 786-0 > 100 µM | EKVX > 100 µM | HCC 2998 > 100 µM | OVCAR-4 > 100 µM | BT-549 > 100 µM | SNB-75 > 100 µM | SK-OV-3 > 100 µM | RPMI-8226 > 100 µM | TK-10 > 100 µM | MOLT-4 > 100 µM | K562 > 100 µM | HCT-116 > 100 µM | OVCAR-5 > 100 µM

CCc1n[nH]c(=O)n1-c1ccc2ccccc2c1
inactive: NCI-H522 > 100 µM | NCI-H226 > 100 µM | UACC-257 > 100 µM | RXF 393 > 100 µM | OVCAR-8 > 100 µM | IGROV-1 > 100 µM | 786-0 > 100 µM | Hs-578T > 100 µM | EKVX > 100 µM | HCC 2998 > 100 µM | OVCAR-4 > 100 µM | SNB-75 > 100 µM | SK-OV-3 > 100 µM | RPMI-8226 > 100 µM | TK-10 > 100 µM | MOLT-4 > 100 µM | K562 > 100 µM | HCT-116 > 100 µM | OVCAR-5 > 100 µM
